Here are results for seven compounds from US10072005B2, “4-azaindole derivatives” (EISAI R&D MANAGEMENT CO., LTD., priority 2013, dated 2018).

In one assay the target is mAChR M1 (Homo sapiens, UniProt P11229). Briefly: In vitro cellular calcium flux assay, positive allosteric modulation of mAChR M1. Type of assay: cell-based. Particulars: BHK cells expressing mAChR M1; EC20 carbachol; Examples 76-80 and 82-89 slightly modified procedure. The procedure, abridged:
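Baby hamster kidney cells stably expressing human mAChR M1, loaded with Calcium 4 dye in HBSS/20 mM HEPES/2.5 mM probenecid for 30 min at 37 °C. An 11-point 1-in-3 compound dilution series was added and calcium rise read as fluorescence; positive allosteric modulator pEC50 and antagonist pIC50 derived.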

In the next assay the target is mAChR M2 (Homo sapiens (Human), UniProt P08172). Briefly: In vitro cellular calcium flux assay, PAM, NAM and agonist modes, mAChR M2. Type of assay: cell-based. The protocol:
(§1) Baby hamster kidney cells stably expressing human or rat mAChR M1 to M5 were utilised for primary and selectivity profiling activities. mAChR M2 and M4 cell lines also stably expressed the chimeric Gαqi5 G-protein.
(§2) Human mAChR M1, M3, M5 and rat M1 cells were grown in low glucose Dulbecco's Modified Eagle's Medium (DMEM) medium plus heat inactivated 10% fetal bovine serum (HI FBS) and 500 μg/ml hygromycin B^1. Human mAChR M2 and M4 cells were maintained as above with^2 the addition of 500 μg/ml G418 to the media. Cells were maintained in culture at 37° C./5% CO2 and passaged twice weekly by treatment with 0.05% Trypsin/EDTA detachment solution, centrifugation (200 g, 5 min) and re-suspension in fresh media. Following cell expansion, cells were cryopreserved at −80° C. by treatment with 0.05% Trypsin/EDTA detachment solution, centrifugation (200 g, 5 min) and re-suspension of the pellet in freezing media (90% HI FBS/10% DMSO^3) at 15E6 cells/ml^4.
(§3) Prior to assaying, cells were prepared by thawing at 37° C. in a water bath, centrifugation (200 g, 5 min) and re-suspension of the pellet in fresh media. 15000 cells per well were seeded in black, clear bottomed 384-well Greiner Bio-One plates in plating medium (DMEM/10% HI FBS) and incubated overnight at 37 C/5% CO2.
(§4) On the day of the assay, media was removed from each well and replaced with 50 μl^5 assay buffer (HBSS with 20 mM HEPES and 2.5 mM Probenecid) containing the calcium indicator, Calcium 4 (Molecular Devices). Cells were then incubated at 37° C./5% CO2 for 30 min and at room temperature.
(§5) Compound preparation was carried out by generation of 11-point, 1 in 3 serial dilution concentration response curves in 100% DMSO. Compound was then diluted 1 in 65^6 with assay buffer (HBSS with 20 mM HEPES and 2.5 mM Probenecid) prior to the addition of 10 ul^7 to the cells using a Tetra fluorometric imaging plate reader (Molecular Devices)^8. Compound driven increases in intracellular calcium flux was measured as an increase in fluorescence (494Ex, 516Em)^9.
(§6) Positive allosteric modulator pEC50 values and antagonist pIC50 values for each compound were then determined. […] The points of modification and the alternate reagents, concentrations or equipment employed in these examples were: ^1200 μg/ml hygromycin B; ^2G418 not added; ^3CELLBANKER 1; ^410E6; ^5 40 μl; ^6 1 in 99; ^7 20 μl; ^8FDSS6000 (Hamamatsu Photonics); ^9(480Ex, 540Em); ^10Spotfire (TIBCO).
(§7) Certain compounds were tested in PAM, NAM and agonist modes against mAChR M2, M3, M4 and M5.

The target of another assay is mAChR M3 (Homo sapiens (Human), UniProt P20309). The assay is described as follows: In vitro cellular calcium flux assay, PAM, NAM and agonist modes, mAChR M3. Type of assay: cell-based. The protocol:
as §1, §2, §3, §4, §5, §6, §7

Another assay deals with mAChR M4 (Homo sapiens (Human), UniProt P08173). The assay is described as follows: In vitro cellular calcium flux assay, PAM, NAM and agonist modes, mAChR M4. Type of assay: cell-based. The protocol: as §1, §2, §3, §4, §5, §6, §7
A further assay deals with mAChR M5 (Homo sapiens (Human), UniProt P08912). Briefly: In vitro cellular calcium flux assay, PAM, NAM and agonist modes, mAChR M5. Type of assay: cell-based. As to the method:
as §1, §2, §3, §4, §5, §6, §7

The subject of a further assay is Male Lister Hooded rats. Briefly: Novel Object Recognition test. Type of assay: in vivo. The conditions noted are these: rat, 24 h delay. As to the method: The Novel Object Recognition test (NOR) is based on the greater spontaneous exploration of a novel object, compared with a familiar object, observed in rodents (Behav. Brain Res., 1988, 31(1), 47-59). […] Therefore, it is considered to be analogous to recognition memory tests used in human clinical testing. Male Lister Hooded rats were assessed for object recognition in a test apparatus comprising of a perspex test arena housed within a sound attenuating chamber. Video images of behaviour were captured by digital camera and recorded to a computer. Rats were habituated to the test arena on four occasions prior to testing. Habituation sessions replicated the test day sequence exactly with the exception of object presentation. On test days, each rat was placed into the test arena and 3 minutes later the rat was presented with two identical objects (plastic shapes). The time spent actively exploring the objects during a 3-minute test period (T1) was recorded. Following T1 rats were returned to home cages. After 24 hours each rat was again placed in the test arena and 3 minutes later was presented with one of the now familiar objects and a novel object, and again the time spent actively exploring the objects during a 3-minute test period (T2) was recorded. The presentation order and position of objects (left/right) was randomised within groups to prevent bias from order or place preference. Objects were cleaned with 70% ethanol solution between trials to remove any olfactory/taste cues. Compounds were administered by oral gavage at an appropriate pre-treatment time prior to T1 and T2 (n=12) at dosage ranges between 0.03 and 3 mg/kg. In some experiments the 5-HT6 receptor antagonist N-(3,5-dichloro-2-methoxyphenyl)-4-methoxy-3-(piperazin-1-yl)benzenesulfonamide (CAS 402713-80-8) (10 mg/kg p.o.; 4 h pre-treatment time) was included as a positive control. Vehicle controls (1% methylcellulose in water) were included for comparison in each study. Results are expressed as the d2 index (difference in time spent exploring novel and familiar objects/total object exploration in T2).

mAChR M1, sequence (P11229 whole entry, looked up): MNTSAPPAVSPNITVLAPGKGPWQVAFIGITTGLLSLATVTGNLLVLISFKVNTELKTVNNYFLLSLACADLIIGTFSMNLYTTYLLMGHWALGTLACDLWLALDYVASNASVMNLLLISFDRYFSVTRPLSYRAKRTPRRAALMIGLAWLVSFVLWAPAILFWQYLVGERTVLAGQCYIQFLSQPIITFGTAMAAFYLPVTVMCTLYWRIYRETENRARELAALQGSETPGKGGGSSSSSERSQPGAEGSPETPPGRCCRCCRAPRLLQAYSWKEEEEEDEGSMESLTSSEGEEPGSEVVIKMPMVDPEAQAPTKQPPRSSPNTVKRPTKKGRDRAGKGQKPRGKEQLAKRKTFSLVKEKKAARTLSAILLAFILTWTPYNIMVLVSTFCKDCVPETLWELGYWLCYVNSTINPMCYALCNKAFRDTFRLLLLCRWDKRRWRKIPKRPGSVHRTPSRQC
mAChR M4, sequence (P08173 whole entry): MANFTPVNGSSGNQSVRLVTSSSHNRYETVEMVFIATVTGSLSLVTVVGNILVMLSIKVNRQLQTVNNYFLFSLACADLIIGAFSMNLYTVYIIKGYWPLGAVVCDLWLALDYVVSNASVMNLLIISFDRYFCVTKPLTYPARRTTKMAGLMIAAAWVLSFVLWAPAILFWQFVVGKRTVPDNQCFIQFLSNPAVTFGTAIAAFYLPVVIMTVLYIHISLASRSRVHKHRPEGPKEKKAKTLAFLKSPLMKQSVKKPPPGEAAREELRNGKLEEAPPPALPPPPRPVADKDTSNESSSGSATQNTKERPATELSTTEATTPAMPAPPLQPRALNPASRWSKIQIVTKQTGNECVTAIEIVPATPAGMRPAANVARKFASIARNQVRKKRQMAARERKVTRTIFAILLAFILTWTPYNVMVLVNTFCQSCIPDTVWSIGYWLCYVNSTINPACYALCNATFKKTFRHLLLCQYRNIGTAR
mAChR M3, sequence (P20309 whole entry, looked up): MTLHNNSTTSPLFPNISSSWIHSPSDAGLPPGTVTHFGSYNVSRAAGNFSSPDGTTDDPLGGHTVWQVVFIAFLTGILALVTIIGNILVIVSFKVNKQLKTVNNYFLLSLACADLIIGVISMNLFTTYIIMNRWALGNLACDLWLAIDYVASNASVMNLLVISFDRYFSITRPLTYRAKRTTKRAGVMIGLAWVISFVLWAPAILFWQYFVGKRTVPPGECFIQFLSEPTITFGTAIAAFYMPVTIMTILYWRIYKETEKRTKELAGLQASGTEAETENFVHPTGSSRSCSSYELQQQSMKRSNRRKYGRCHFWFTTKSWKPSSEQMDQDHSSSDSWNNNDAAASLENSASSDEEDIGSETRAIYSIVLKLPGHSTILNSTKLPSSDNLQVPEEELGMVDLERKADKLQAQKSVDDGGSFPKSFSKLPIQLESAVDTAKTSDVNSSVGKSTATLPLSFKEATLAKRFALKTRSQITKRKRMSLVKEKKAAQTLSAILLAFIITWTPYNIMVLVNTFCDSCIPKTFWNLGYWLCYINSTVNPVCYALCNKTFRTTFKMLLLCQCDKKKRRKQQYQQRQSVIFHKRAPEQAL
mAChR M2, sequence (P08172 whole entry): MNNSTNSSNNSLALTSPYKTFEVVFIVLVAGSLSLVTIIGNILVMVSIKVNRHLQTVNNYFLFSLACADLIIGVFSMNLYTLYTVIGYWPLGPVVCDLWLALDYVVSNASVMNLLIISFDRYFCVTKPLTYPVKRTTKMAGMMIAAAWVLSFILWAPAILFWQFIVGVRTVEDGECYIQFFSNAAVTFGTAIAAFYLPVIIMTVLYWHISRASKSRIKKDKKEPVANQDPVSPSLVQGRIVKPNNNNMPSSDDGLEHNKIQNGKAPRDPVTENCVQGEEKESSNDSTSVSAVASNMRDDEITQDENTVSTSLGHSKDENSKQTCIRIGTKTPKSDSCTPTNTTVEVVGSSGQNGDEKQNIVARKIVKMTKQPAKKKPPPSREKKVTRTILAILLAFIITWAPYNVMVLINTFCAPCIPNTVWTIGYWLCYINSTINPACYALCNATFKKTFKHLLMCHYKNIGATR
mAChR M5, sequence (P08912 whole entry): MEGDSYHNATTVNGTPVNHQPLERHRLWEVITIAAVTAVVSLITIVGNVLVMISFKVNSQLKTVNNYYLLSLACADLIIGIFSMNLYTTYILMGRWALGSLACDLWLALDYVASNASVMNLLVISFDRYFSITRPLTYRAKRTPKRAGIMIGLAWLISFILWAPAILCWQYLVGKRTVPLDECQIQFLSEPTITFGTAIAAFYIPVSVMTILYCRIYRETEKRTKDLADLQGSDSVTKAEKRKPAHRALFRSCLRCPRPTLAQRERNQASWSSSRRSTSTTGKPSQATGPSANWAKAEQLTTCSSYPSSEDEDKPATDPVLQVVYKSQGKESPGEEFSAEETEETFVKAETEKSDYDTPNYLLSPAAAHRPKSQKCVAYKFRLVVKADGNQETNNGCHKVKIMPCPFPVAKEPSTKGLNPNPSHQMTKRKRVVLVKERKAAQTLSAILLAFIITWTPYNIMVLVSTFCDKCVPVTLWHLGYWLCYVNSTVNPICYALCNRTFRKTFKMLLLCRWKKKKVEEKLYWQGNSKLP

For `O=C(NC1CCC(F)(F)C[C@@H]1O)c1cn(Cc2ccc(F)cc2)c2cccnc12` (single isomer, unassigned) [Example 34, N-(trans-4,4-Difluoro-2-hydroxycyclohexyl)-1-(4-fluorobenzyl)-1H-pyrrolo[3,2-b]pyridine-3-carboxamide], at mAChR M1, the “pEC50 for positive allosteric modulation” value amounted to 6.9. The EC50 at mAChR M2, at mAChR M3, on mAChR M4 and at mAChR M5 was over 10 µM each time. Besides, the results for the “d2 index [mean ± SEM]” value with Male Lister Hooded rats (0.1 mg/kg p.o.), in the assay with Male Lister Hooded rats (0.3 mg/kg p.o.) and in the assay with Male Lister Hooded rats (1 mg/kg p.o.) were “[0.08 ± 0.08]”, “[0.24 ± 0.05]*” and “[0.23 ± 0.06]*”, respectively.

On to `Cc1cc(Cn2cc(C(=O)N[C@H]3CCCC[C@@H]3O)c3ncccc32)ccc1F` [Example 6, 1-(4-Fluoro-3-methylbenzyl)-N-((1S,2S)-2-hydroxycyclohexyl)-1H-pyrrolo[3,2-b]pyridine-3-carboxamide], for which the “pEC50 for positive allosteric modulation” value on mAChR M1 is on record as 6.7. In addition, the EC50 at mAChR M2, at mAChR M3, on mAChR M4 and on mAChR M5 was over 10 µM in each case. Moreover, the results for the “d2 index [mean ± SEM]” value in the assay on Male Lister Hooded rats (0.3 mg/kg p.o.), in the assay with Male Lister Hooded rats (1 mg/kg p.o.) and with Male Lister Hooded rats (3 mg/kg p.o.) were “[0.11 ± 0.09]”, “[0.27 ± 0.08]*” and “[0.36 ± 0.09]**”, respectively.

With `O=C(N[C@H]1CCCC[C@@H]1O)c1cn(Cc2cccc(F)c2F)c2cccnc12` [Example 8, 1-(2,3-Difluorobenzyl)-N-((1S,2S)-2-hydroxycyclohexyl)-1H-pyrrolo[3,2-b]pyridine-3-carboxamide], the “pEC50 for positive allosteric modulation” value at mAChR M1 was 6.5. In addition, the EC50 at mAChR M2, on mAChR M3, at mAChR M4 and at mAChR M5 was over 10 µM in each case. The “d2 index [mean ± SEM]” value in the assay with Male Lister Hooded rats (0.03 mg/kg p.o.) was “[0.00 ± 0.07]”; in the assay on Male Lister Hooded rats (0.1 mg/kg p.o.) it was “[0.09 ± 0.06]”; with Male Lister Hooded rats (0.3 mg/kg p.o.) it was “[0.34 ± 0.06]***”.

With `COc1ccc(Cn2cc(C(=O)N[C@H]3CCCC[C@@H]3O)c3nccc(C)c32)cc1` [Example 12, N-((1S,2S)-2-Hydroxycyclohexyl)-1-(4-methoxybenzyl)-7-methyl-1H-pyrrolo[3,2-b]pyridine-3-carboxamide], at mAChR M1, the “pEC50 for positive allosteric modulation” value worked out at 7.7. For the same compound, the EC50 on mAChR M2, on mAChR M3, at mAChR M4 and at mAChR M5 was over 10 µM in each case. In addition, the “d2 index [mean ± SEM]” value is “[0.13 ± 0.06]” in the assay with Male Lister Hooded rats (0.3 mg/kg p.o.), “[0.30 ± 0.05]***” in the assay on Male Lister Hooded rats (1 mg/kg p.o.) and “[0.33 ± 0.06]***” in the assay with Male Lister Hooded rats (3 mg/kg p.o.).

For `Cc1ccnc2c(C(=O)N[C@H]3CCCC[C@@H]3O)cn(Cc3cccc(F)c3F)c12` [Example 11, 1-(2,3-Difluorobenzyl)-N-((1S,2S)-2-hydroxycyclohexyl)-7-methyl-1H-pyrrolo[3,2-b]pyridine-3-carboxamide], the “pEC50 for positive allosteric modulation” value on mAChR M1 turned out to be 6.9. For the same compound, the EC50 on mAChR M2, on mAChR M3, at mAChR M4 and at mAChR M5 was over 10 µM throughout. Besides, the results for the “d2 index [mean ± SEM]” value with Male Lister Hooded rats (0.3 mg/kg p.o.), in the assay with Male Lister Hooded rats (1 mg/kg p.o.) and in the assay on Male Lister Hooded rats (3 mg/kg p.o.) were “[0.24 ± 0.06]”, “[0.24 ± 0.07]” and “[0.31 ± 0.06]**”, respectively.

Regarding `COc1ccc(Cn2cc(C(=O)N[C@H]3CCCC[C@@H]3O)c3nccc(C)c32)cc1F` [Example 13, 1-(3-Fluoro-4-methoxybenzyl)-N-((1S,2S)-2-hydroxycyclohexyl)-7-methyl-1H-pyrrolo[3,2-b]pyridine-3-carboxamide], at mAChR M1, the “pEC50 for positive allosteric modulation” value is 7.9. Besides, the EC50 on mAChR M2, at mAChR M3, on mAChR M4 and on mAChR M5 was over 10 µM each time. For the same compound, the “d2 index [mean ± SEM]” value in the assay with Male Lister Hooded rats (0.3 mg/kg p.o.) was “[0.09 ± 0.05]”; in the assay on Male Lister Hooded rats (1 mg/kg p.o.), “[0.13 ± 0.07]”; in the assay on Male Lister Hooded rats (3 mg/kg p.o.), “[0.25 ± 0.09]*”.

As for `Cc1ccnc2c(C(=O)N[C@H]3CCCC[C@@H]3O)cn(Cc3ccc(F)cc3)c12` [Example 10, 1-(4-Fluorobenzyl)-N-((1S,2S)-2-hydroxycyclohexyl)-7-methyl-1H-pyrrolo[3,2-b]pyridine-3-carboxamide], the “pEC50 for positive allosteric modulation” value at mAChR M1 was 7.7. Moreover, the EC50 at mAChR M2, on mAChR M3, on mAChR M4 and at mAChR M5 was over 10 µM in each case. The “d2 index [mean ± SEM]” value is “[0.18 ± 0.10]” with Male Lister Hooded rats (0.03 mg/kg p.o.), “[0.18 ± 0.09]” in the assay with Male Lister Hooded rats (0.1 mg/kg p.o.) and “[0.30 ± 0.08]**” with Male Lister Hooded rats (0.3 mg/kg p.o.).
